Reference: patent US6409996B1, “Composition comprising one or more flavonoids, method of obtaining such composition and use thereof as UV-absorbing agent” (Flavone Sunproducts A/S, priority 1997, dated 2002)

Assay: solubility experiment in water at room temperature
Assay type: physicochemical
Procedure: A solubility experiment was carried out in which commercially available naringin was dissolved in water at room temperature. The naringin was dissolved in an amount of 0.1 g/l corresponding to around 0.01 weight-%. A pulverous test sample of a composition obtained from Citrus Aurantium by the method according to the invention and comprising about 20 weight-% naringin was also dissolved in water at room temperature. The composition was dissolved in an amount of […], corresponding to a […] solution of naringin weight-%. Accordingly the solubility of naringin is 300 times higher in water when obtained by the method according to the invention and being in the composition obtained from Citrus Aurantium by said method, than commercially available naringin.

amount dissolved in water: 0.1 g/L
amount dissolved in water, as weight-% (commercially available naringin): around 0.01 weight-%
Structure (SMILES): C[C@@H]1O[C@@H](O[C@H]2[C@H](Oc3cc(O)c4c(c3)O[C@H](c3ccc(O)cc3)CC4=O)O[C@H](CO)[C@@H](O)[C@@H]2O)[C@H](O)[C@H](O)[C@H]1O [naringin, naringenin-7β-neohesperidoside; 5,7,4′-trihydroxyflavanone-7β-neohesperidoside]
